Like-named read-outs stand apart in the source and are kept apart here. Some results are limits rather than exact numbers.

Data on 13 compounds can be found in US11834453B2, “Substituted pyrimido[5,4-d]pyrimidines as HER2 inhibitors” (Array BioPharma Inc., priority 2020, dated 2023).

Data set [1] addresses ErbB2 insYVMA (HER2-YVMA, SEQ ID NO: 2) (Homo sapiens, UniProt P04626, INS775YVMA/P1170A). As to the kind of experiment: biochemical. The conditions noted are these: ErbB2 insYVMA enzyme assay.
The target in the next data set is ErbB2 WT (Homo sapiens (Human), UniProt P04626). As to the kind of experiment: ErbB enzyme assay (CisBio HTRF KinEASE-TK), Assay 2. Format: biochemical. A digest of the protocol:
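ErbB2 phosphorylates 250 nM biotin-TK substrate at 1 mM ATP in 25 mM HEPES pH 7.4, 10 mM MgCl2, 0.01% Triton X-100 and 2% DMSO, for 30 min at 22 °C. Product is detected by HTRF with Sa-XL665 and TK-Ab-Cryptate. Percent of control is set by DMSO-only wells and pre-quenched wells.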
In general terms: TR-FRET usually uses a lanthanide donor and a delayed reading to cut background.

The next data set has as its target EGFR (Homo sapiens (Human), UniProt P00533). As to the kind of experiment: ErbB enzyme assay (CisBio HTRF KinEASE-TK), Assay 3. Type of data set: biochemical. Summed up: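 HTRF KinEASE-TK assay: kinase with 250 nM biotinylated TK-substrate and 1 mM ATP in 25 mM HEPES pH 7.4, 10 mM MgCl2, 0.01% Triton X-100, 2% DMSO, 30 min at 22 °C. Quenched with Sa-XL665/TK-Ab-Cryptate, read after 1 h. IC50 from 4-parameter fit of percent of control.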

Data set [2] deals with ErbB2 with Exon 20 YVMA insertion (HER2-YVMA) (Homo sapiens (Human), UniProt P04626, INS775YVMA). The experiment in a line: Cellular phosphorylation assay, constitutive ErbB2 phosphorylation (Y1196) in engineered NIH 3T3 cells, Assay 4. Type of data set: cell-based. Summed up:
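Engineered NIH 3T3 cells expressing HER2-YVMA treated with compounds 1 h at 37 °C, then formaldehyde-fixed and methanol-permeabilized. pErbB2 Y1196 detected by in-cell infrared immunofluorescence, normalized to GAPDH. IC50 from the normalized curves.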

The target of another data set is EGFR wild type (EGFR WT) (Homo sapiens (Human), UniProt P00533). The experiment in a line: Cellular phosphorylation assay, EGF-stimulated EGFR phosphorylation in engineered NIH 3T3 cells, Phospho-EGFR DuoSet IC ELISA, Assay 5. Format: cell-based. A digest of the protocol:
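NIH 3T3 cells expressing EGFR WT (20,000/well, attached overnight) were exposed to serially diluted compound for 1 h at 37 °C, then stimulated with 100 ng/ml rEGF for 10 min. Phospho-EGFR in lysates measured by sandwich ELISA optical density; IC50 from curves.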

In a further data set the target is MDR1 (P-gp) (Homo sapiens (Human), UniProt P08183). As to the kind of experiment: MDR1 transfected MDCKII canine Mdr1 knockout permeability/efflux, Assay 7. The settings on record: dog, MDCK-MDR1.
The target of another data set is BCRP (Homo sapiens (Human), UniProt Q9UNQ0). As to the kind of experiment: BCRP transfected MDCKII canine Mdr1 knockout permeability/efflux, Assay 9. The conditions noted are these: dog.
[3] abbreviates: Assay 9 Pe Ratio, efflux ratio Papp(B-A)/Papp(A-B), BCRP transfected MDCKII canine Mdr1 knockout.

EGFR, sequence (P00533 25-1210): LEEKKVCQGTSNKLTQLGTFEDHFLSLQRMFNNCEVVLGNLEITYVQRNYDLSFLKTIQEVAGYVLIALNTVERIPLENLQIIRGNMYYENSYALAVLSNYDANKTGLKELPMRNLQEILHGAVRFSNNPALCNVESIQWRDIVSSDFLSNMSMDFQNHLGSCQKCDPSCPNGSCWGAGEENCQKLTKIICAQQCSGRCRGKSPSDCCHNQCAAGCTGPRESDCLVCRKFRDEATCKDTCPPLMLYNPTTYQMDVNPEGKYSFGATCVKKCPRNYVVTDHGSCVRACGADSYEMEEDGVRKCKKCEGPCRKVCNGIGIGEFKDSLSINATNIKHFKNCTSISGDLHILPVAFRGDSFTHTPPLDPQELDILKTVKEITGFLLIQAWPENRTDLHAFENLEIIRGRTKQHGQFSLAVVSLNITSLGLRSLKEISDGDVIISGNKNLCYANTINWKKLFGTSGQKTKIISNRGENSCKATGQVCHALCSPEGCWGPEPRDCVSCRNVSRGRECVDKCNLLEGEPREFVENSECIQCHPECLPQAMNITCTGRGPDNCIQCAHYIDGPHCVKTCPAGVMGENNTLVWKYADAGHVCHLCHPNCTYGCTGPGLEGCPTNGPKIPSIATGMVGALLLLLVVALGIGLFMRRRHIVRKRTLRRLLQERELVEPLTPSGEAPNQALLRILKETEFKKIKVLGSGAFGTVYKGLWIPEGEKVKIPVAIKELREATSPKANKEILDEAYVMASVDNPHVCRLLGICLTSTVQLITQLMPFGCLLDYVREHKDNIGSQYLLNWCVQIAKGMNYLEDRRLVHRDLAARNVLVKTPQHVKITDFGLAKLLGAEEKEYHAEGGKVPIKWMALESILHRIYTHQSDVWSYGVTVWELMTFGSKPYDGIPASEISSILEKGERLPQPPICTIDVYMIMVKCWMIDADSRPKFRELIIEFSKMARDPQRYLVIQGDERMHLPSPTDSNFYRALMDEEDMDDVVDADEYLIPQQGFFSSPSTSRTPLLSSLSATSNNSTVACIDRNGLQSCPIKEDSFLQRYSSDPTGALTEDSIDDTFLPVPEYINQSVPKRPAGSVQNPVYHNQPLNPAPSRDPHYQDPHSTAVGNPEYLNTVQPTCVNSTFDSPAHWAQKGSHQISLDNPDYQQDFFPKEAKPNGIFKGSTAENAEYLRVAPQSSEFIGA
EGFR wild type (EGFR WT), sequence (P00533 25-1210): as above
ErbB2 WT, sequence (P04626 23-1255): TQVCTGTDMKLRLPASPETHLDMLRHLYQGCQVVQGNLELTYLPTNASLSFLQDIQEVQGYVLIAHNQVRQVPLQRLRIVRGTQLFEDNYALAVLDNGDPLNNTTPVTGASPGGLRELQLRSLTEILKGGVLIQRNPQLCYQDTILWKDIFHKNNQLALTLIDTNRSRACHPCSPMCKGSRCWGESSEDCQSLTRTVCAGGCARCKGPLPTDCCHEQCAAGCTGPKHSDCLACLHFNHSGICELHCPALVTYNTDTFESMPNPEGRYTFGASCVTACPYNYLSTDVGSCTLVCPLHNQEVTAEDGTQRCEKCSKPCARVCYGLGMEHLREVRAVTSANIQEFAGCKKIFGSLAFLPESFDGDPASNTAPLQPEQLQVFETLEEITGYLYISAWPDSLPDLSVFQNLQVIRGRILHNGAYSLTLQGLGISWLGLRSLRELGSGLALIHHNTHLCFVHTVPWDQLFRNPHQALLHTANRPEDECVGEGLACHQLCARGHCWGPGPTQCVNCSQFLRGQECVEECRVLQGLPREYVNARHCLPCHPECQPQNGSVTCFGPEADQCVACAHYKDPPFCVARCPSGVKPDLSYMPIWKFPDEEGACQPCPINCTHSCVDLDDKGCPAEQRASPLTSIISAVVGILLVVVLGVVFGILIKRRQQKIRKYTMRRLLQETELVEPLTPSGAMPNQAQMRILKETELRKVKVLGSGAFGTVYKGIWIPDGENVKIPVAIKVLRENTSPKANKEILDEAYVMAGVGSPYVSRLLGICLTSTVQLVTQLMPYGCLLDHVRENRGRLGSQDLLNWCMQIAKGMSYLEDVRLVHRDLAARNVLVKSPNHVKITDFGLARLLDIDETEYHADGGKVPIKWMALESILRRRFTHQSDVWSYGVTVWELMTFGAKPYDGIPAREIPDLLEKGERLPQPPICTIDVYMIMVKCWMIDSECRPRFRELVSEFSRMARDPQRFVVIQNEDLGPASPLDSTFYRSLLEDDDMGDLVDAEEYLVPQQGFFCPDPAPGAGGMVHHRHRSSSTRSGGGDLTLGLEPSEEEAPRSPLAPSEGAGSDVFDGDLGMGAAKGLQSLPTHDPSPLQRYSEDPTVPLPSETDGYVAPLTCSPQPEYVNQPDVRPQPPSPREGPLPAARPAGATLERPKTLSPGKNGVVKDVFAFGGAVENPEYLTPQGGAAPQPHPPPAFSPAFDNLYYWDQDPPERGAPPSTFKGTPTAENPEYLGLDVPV
ErbB2 with Exon 20 YVMA insertion (HER2-YVMA), sequence (P04626 other isoform, or with tags, fused parts or gaps ins YVMA behind 775): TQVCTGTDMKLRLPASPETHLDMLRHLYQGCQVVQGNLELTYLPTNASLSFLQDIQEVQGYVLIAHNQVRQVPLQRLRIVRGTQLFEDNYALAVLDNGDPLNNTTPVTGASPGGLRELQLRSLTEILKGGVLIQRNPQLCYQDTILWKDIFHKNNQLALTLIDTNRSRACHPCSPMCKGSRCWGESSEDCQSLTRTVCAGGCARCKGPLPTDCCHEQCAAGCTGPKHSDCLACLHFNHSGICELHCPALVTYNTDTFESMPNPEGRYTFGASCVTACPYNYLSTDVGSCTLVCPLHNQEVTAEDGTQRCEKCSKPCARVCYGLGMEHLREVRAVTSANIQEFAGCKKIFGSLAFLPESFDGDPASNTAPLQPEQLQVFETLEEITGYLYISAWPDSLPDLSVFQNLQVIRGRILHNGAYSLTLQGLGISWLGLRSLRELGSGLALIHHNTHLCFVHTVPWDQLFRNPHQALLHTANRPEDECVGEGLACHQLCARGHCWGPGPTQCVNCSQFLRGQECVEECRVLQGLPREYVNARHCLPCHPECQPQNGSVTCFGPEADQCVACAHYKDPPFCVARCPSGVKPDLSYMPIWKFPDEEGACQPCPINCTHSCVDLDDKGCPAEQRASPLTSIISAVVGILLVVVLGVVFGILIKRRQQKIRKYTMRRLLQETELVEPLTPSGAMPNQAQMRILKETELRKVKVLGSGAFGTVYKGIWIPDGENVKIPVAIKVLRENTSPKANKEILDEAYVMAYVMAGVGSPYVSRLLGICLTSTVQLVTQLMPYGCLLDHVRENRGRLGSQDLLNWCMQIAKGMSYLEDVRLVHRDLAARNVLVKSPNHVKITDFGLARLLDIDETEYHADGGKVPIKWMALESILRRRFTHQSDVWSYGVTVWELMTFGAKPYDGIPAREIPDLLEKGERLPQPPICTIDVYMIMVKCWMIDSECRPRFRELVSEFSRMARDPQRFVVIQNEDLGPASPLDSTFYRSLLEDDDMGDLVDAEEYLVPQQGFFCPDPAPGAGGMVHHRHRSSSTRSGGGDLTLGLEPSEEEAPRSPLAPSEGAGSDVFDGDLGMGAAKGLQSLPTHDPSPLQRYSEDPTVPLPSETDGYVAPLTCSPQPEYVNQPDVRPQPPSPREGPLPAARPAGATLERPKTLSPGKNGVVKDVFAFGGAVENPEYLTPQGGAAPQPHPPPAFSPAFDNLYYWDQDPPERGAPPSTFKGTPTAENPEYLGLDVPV
Procedure for MDR1 (P-gp): Both MDR1 transfected LLC-PK1 (Assay 6) and MDR1 transfected MDCKII canine Mdr1 knockout cells (Assay 7) were cultured and plated according to manufacturer's recommendations with the exception that the passage media for the MDR1 transfected LLC-PK1 cell line contained only 2% fetal bovine serum so as to extend passage time out to seven days.
Both positive and negative controls were used to assess functionality of P-gp or BCRP efflux in the assays. Stock solutions for assay controls and the test article were prepared in DMSO for final test concentration of 1 μM. Final organic concentration in the assay was 1%. All dosing solutions contained 10 μM lucifer yellow to monitor MDCKII cell monolayer integrity.
For the apical to basolateral determination (A to B), 75 μL of the test article in transport buffer were added to the apical side of the individual transwells and 250 μL of basolateral media, without compound or lucifer yellow, were added to each well. For the basolateral to apical determination (B to A), 250 μL of test article in transport buffer were added to each well and 75 μL transport buffer, without compound or lucifer yellow, were added to each transwell. All tests were performed in triplicate, and each compound was tested for both apical to basolateral and basolateral to apical transport. The plates were incubated for 2 hours on a Lab-Line Instruments Titer Orbital Shaker (VWR, West Chester, PA) at 50 rpm and 37° C. with 5% CO2. All culture plates were removed from the incubator, 50 μL of media were removed from the apical and basolateral portion of each well, and added to 150 μL of 1 μM labetalol in 2:1 acetonitrile (ACN): H2O, v/v.
The plates were read using a Molecular Devices (Sunnyvale, CA) Gemini Fluorometer to evaluate the lucifer yellow concentrations at excitation/emission wavelengths of 425/535 nm. These values were accepted when found to be below 2% for apical to basolateral and 5% basolateral to apical flux across the MDR1-transfected LLC-PK1 or BCRP-transfected MDCKII cell monolayers. The plates were sealed, and the contents of each well analyzed by LC MS/MS. The compound concentrations were determined from the ratio of the peak areas of the compound to the internal standard (labetalol) in comparison to the dosing solution.
A MDS Sciex API 4000 (Applied Biosystems, Foster City, CA) mass spectrometer was used for detection of the analytes in the ion spray positive mode. Analyte responses were measured by multiple reaction monitoring (“MRM”) of transitions unique to each compound (the protonated precursor ion and selected product ions for each test article and m/z 329 to m/z 162 for labetalol, the internal standard.
The total run time, including re-equilibration, for a single injection was 1.2 minutes. […] The total run time, including re-equilibration, for a single injection was 0.61 minutes.
An efflux ratio is calculated from the mean apical to basolateral (A-B) Papp data and basolateral to apical (B-A) Papp data: Efflux ratio=Papp(B−A)/Papp(A−B)

Consider `CC(C)(O)[C@@H]1CCN(c2ncc3ncnc(Nc4ccc(Oc5ccn6ncnc6c5)c(Cl)c4)c3n2)C1` [Example 122, (R)-2-(1-(8-((4-([1,2,4]triazolo[1,5-a]pyridin-7-yloxy)-3-chlorophenyl)amino)pyrimido[5,4-d]pyrimidin-2-yl)pyrrolidin-3-yl)propan-2-ol], for which the IC50 is 15.2 nM in data set [1] (read-out: Assay 1 IC50); 22.7 nM against ErbB2 WT; 953 nM on EGFR; 19.7 nM in data set [2]; at least 5000 nM at EGFR wild type (EGFR WT). The results for the efflux ratio at 2 h, 1 μM on MDR1 (P-gp) and at BCRP (setting [3]) were 1.7 and 7.3, respectively.

As to `CN(c1ncc2ncnc(Nc3ccc(Oc4ccc5c(c4)ncn5C)c(Cl)c3)c2n1)C1COC1` [Example 123, N8-(3-chloro-4-((1-methyl-1H-benzo[d]imidazol-5-yl)oxy)phenyl)-N2-methyl-N2-(oxetan-3-yl)pyrimido[5,4-d]pyrimidine-2,8-diamine], the IC50 was 26.5 nM in data set [1] (read-out: Assay 1 IC50); 118 nM against ErbB2 WT; at least 10000 nM against EGFR; 13.2 nM in data set [2]; at least 5000 nM on EGFR wild type (EGFR WT). The figures for the efflux ratio at 2 h, 1 μM at MDR1 (P-gp) and at BCRP (setting [3]) were 1.6 and 2.4, respectively.

For `Cc1cc(Nc2ncnc3cnc(N4CC[C@@H](C(C)(C)O)C4)nc23)ccc1Oc1ccn2ncnc2c1` [Example 124, (R)-2-(1-(8-((4-([1,2,4]triazolo[1,5-a]pyridin-7-yloxy)-3-methylphenyl)amino)pyrimido[5,4-d]pyrimidin-2-yl)pyrrolidin-3-yl)propan-2-ol], the IC50 in data set [1] (read-out: Assay 1 IC50) is 16 nM; on ErbB2 WT, 14.3 nM; against EGFR it was 2750 nM; in data set [2], 64.8 nM; against EGFR wild type (EGFR WT), at least 5000 nM. For the same compound, the efflux ratio at 2 h, 1 μM at MDR1 (P-gp) is 1.4; at BCRP (setting [3]), 10.3.

As to `Cc1cc(Nc2ncnc3cnc(N(C)[C@@H]4CCOC4)nc23)ccc1Oc1ccc2c(c1)ncn2C` [Example 128, (R)—N2-methyl-N8-(3-methyl-4-((1-methyl-1H-benzo[d]imidazol-5-yl)oxy)phenyl)-N2-(tetrahydrofuran-3-yl)pyrimido[5,4-d]pyrimidine-2,8-diamine], the IC50 in data set [1] (read-out: Assay 1 IC50) was 21 nM; against ErbB2 WT, 20 nM; against EGFR, 3270 nM; in data set [2] it was 36.3 nM; on EGFR wild type (EGFR WT), at least 5000 nM. Also, the efflux ratio at 2 h, 1 μM on MDR1 (P-gp) was found to be 1.6; on BCRP (setting [3]), 1.4.

Consider `Cc1cc(Nc2ncnc3cnc(N4CCC5COCC54)nc23)ccc1Oc1ccc2c(c1)ncn2C` (stereo not shown) [Example 129, 6-(hexahydro-1H-furo[3,4-b]pyrrol-1-yl)-N-(3-methyl-4-((1-methyl-1H-benzo[d]imidazol-5-yl)oxy)phenyl)pyrimido[5,4-d]pyrimidin-4-amine], for which the IC50 was 12.4 nM in data set [1] (read-out: Assay 1 IC50); 15 nM at ErbB2 WT; 865 nM against EGFR; 7.6 nM in data set [2]; at least 5000 nM against EGFR wild type (EGFR WT). The efflux ratio at 2 h, 1 μM was determined as 1.4 at MDR1 (P-gp) and 1.7 on BCRP (setting [3]).

With `FC(F)(F)[C@@H]1CN(c2ncc3ncnc(Nc4ccc(Oc5ccn6ncnc6c5)c(Cl)c4)c3n2)CCN1` [Example 130, (S)—N-(4-([1,2,4]triazolo[1,5-a]pyridin-7-yloxy)-3-chlorophenyl)-6-(3-(trifluoromethyl)piperazin-1-yl)pyrimido[5,4-d]pyrimidin-4-amine], the half-maximal inhibitory concentration (IC50) in data set [1] (read-out: Assay 1 IC50) is 41.7 nM; against ErbB2 WT, 36.3 nM; against EGFR, 2560 nM; in data set [2] it was 43.3 nM; on EGFR wild type (EGFR WT), at least 5000 nM. The efflux ratio at 2 h, 1 μM worked out at 1.3 on MDR1 (P-gp) and 1 on BCRP (setting [3]).

For the compound `Cc1cc(Nc2ncnc3cnc(N(C)[C@H]4CCOC4)nc23)ccc1Oc1ccc2c(c1)ncn2C` [Example 131, (S)—N2-methyl-N8-(3-methyl-4-((1-methyl-1H-benzo[d]imidazol-5-yl)oxy)phenyl)-N2-(tetrahydrofuran-3-yl)pyrimido[5,4-d]pyrimidine-2,8-diamine], the concentration for half-maximal inhibition (IC50) in data set [1] (read-out: Assay 1 IC50) is 21 nM; at ErbB2 WT, 20 nM; against EGFR, 3270 nM; in data set [2] it was 36.3 nM; on EGFR wild type (EGFR WT), at least 5000 nM. For the same compound, the efflux ratio at 2 h, 1 μM at MDR1 (P-gp) amounted to 1.6; on BCRP (setting [3]) it was 1.4.

Turning to `Clc1cc(Nc2ncnc3cnc(N4CCC45COC5)nc23)ccc1Oc1ccn2ncnc2c1` [Example 132, N-(4-([1,2,4]triazolo[1,5-a]pyridin-7-yloxy)-3-chlorophenyl)-6-(6-oxa-1-azaspiro[3.3]heptan-1-yl)pyrimido[5,4-d]pyrimidin-4-amine], the IC50 in data set [1] (read-out: Assay 1 IC50) is 5.8 nM; against ErbB2 WT it was 5.6 nM; at EGFR, 801 nM; in data set [2], 19.9 nM; against EGFR wild type (EGFR WT) it was at least 5000 nM. Also, the efflux ratio at 2 h, 1 μM stood at 1.1 on MDR1 (P-gp) and 1.8 at BCRP.

Turning to `Cn1cnc2cc(Oc3ccc(Nc4ncnc5cnc(N6CCC67COC7)nc45)cc3Cl)ccc21.O=C(O)C(F)(F)F` [Example 145, N-(3-chloro-4-((1-methyl-1H-benzo[d]imidazol-5-yl)oxy)phenyl)-6-(6-oxa-1-azaspiro[3.3]heptan-1-yl)pyrimido[5,4-d]pyrimidin-4-amine], the IC50 is 19.3 nM in data set [1] (Assay 1 IC50 (nM)); 19.6 nM on ErbB2 WT; 896 nM against EGFR; 20.2 nM in data set [2]; at least 5000 nM at EGFR wild type (EGFR WT). Also, the efflux ratio at 2 h, 1 μM at MDR1 (P-gp) came to 0.7; at BCRP, 2.1.

`Cn1cnc2cc(Oc3ccc(Nc4ncnc5cnc(N6CCN[C@@H](C(F)(F)F)C6)nc45)cc3Cl)ccc21.O=C(O)C(F)(F)F` [Example 146, (R)—N-(3-chloro-4-((1-methyl-1H-benzo[d]imidazol-5-yl)oxy)phenyl)-6-(3-(trifluoromethyl)piperazin-1-yl)pyrimido[5,4-d]pyrimidin-4-amine 2,2,2-trifluoroacetate]: the IC50 in data set [1] (Assay 1 IC50 (nM)) was 54.1 nM; against ErbB2 WT, 58.2 nM; at EGFR it was 3720 nM; in data set [2], 35.5 nM; against EGFR wild type (EGFR WT) it was at least 5000 nM. Besides, the figures for the efflux ratio at 2 h, 1 μM on MDR1 (P-gp) and on BCRP were 0.8 and 5.1, respectively.

In the case of `Cc1c(Oc2ccc3c(c2)ncn3C)ccc(Nc2ncnc3cnc(N4CCC[C@](C)(O)C4)nc23)c1F` [Example 147, (S)-1-(8-((2-fluoro-3-methyl-4-((1-methyl-1H-benzo[d]imidazol-5-yl)oxy)phenyl)amino)pyrimido[5,4-d]pyrimidin-2-yl)-3-methylpiperidin-3-ol], the IC50 in data set [1] (read-out: Assay 1 IC50) was 74.2 nM; at ErbB2 WT, 45.5 nM; on EGFR it was 2650 nM; in data set [2] it was 32.6 nM; on EGFR wild type (EGFR WT), at least 5000 nM. For the same compound, the efflux ratio at 2 h, 1 μM stood at 1 at MDR1 (P-gp) and 2.7 at BCRP (setting [3]).

Take `Cc1cc(Nc2ncnc3cnc(N(C)C4CCOCC4)nc23)ccc1Oc1ccc2c(c1)ncn2C` [Example 153, N2-methyl-N8-(3-methyl-4-((1-methyl-1H-benzo[d]imidazol-5-yl)oxy)phenyl)-N2-(tetrahydro-2H-pyran-4-yl)pyrimido[5,4-d]pyrimidine-2,8-diamine]: the IC50 in data set [1] (read-out: Assay 1 IC50) is 7.6 nM; on ErbB2 WT it was 16.3 nM; at EGFR, 5550 nM; in data set [2], 25 nM; against EGFR wild type (EGFR WT), at least 5000 nM. The figures for the efflux ratio at 2 h, 1 μM on MDR1 (P-gp) and on BCRP (setting [3]) were 1.5 and 1.4, respectively.

With `Cc1cc(Nc2ncnc3cnc(N4CC[C@@](C)(O)C4)nc23)ccc1Oc1ccc2c(c1)ncn2C` [Example 154, (R)-3-methyl-1-(8-((3-methyl-4-((1-methyl-1H-benzo[d]imidazol-5-yl)oxy)phenyl)amino)pyrimido[5,4-d]pyrimidin-2-yl)pyrrolidin-3-ol], the IC50 is 10.3 nM in data set [1] (read-out: Assay 1 IC50); 8 nM against ErbB2 WT; 1940 nM against EGFR; 15.7 nM in data set [2]; at least 5000 nM on EGFR wild type (EGFR WT). The figures for the efflux ratio at 2 h, 1 μM on MDR1 (P-gp) and on BCRP (setting [3]) were 2.1 and 34, respectively.

A word on the IC50: it is the point on the concentration scale where inhibition reaches its midpoint. For orientation: efflux ratio means the permeability from basolateral to apical divided by that in the opposite direction, in the common usage.
